The source of these data is article PMC7347136 (PLoS ONE, 2020).

Molecules are shown by their SMILES. Where two headings read alike, the source gives them in different places.

The subject of one data set is THP-1. The data set can be described thus: Resazurin reduction cell viability assay. The format is cell-based, human. Particulars: Homo sapiens, THP-1, 72 h, THP-1; value the 7 x 7 combination matrix spans; 72 h; read-out: IC50 value of each compound (single agent). How it is done:
(§1) Solid tumor cell lines were seeded in 100 μl medium into 96-well plates at an appropriate cell number determined by a cell dilution assay (Cal51–2000 cells/well; Colo205, MCF10A and 184A1–3000 cells/well and MDA-MB-468, HCC1954–4000 cells/well). AML suspension cells were seeded in 96-well plates at approximately 3000 cells per well. Cells were incubated overnight at 37°C, 5% CO2. The following day, 100 μl fresh medium containing increasing concentrations of appropriate compound was added and the cells were incubated for up to 72 h at 37°C, 5% CO2. For pulse treatment of solid (adherent) tumor cell lines, medium was aspirated and replaced with fresh drug-free medium. For pulse treatment of suspension lines, plates were centrifuged at 478 xg for 5 min at the end of the incubation period with compound, medium containing compound was carefully aspirated and replaced with fresh compound-free medium. A total of 72 h after the start of treatment, 20 μl of a 10X stock of resazurin sodium salt (Sigma-Aldrich, Dorset, UK) prepared in medium was added to the cells and incubated for up to 3 h. […] was measured on the Wallac Victor plate reader (Cambridge, UK) at 544–595 nm. IC50/70/90 calculations were determined in XLFit.

The next data set deals with Colo205. The data set can be described thus: Resazurin reduction cell viability assay. The format is cell-based, human. Particulars: 72 h continuous treatment, read-out: Colo205 IC50 ± SD. The procedure:
as §1
For orientation: Alamar Blue is a resazurin reagent that responds to reducing activity.

The test system of data set [1] is subcutaneous EOL-1 tumors. Kind of data set: EOL-1 human eosinophilic leukemia xenograft model. The format is in vivo, SCID mice. How it is done: Female athymic CB-17 SCID (Harlan Sprague-Dawley) mice between 6–7 weeks of age weighing approximately 22 grams were housed in a 12-h light-dark cycle at 70–74°F (21–23°C) and 40–60% humidity. Animals were fed water ad libitum (reverse osmosis, 2 ppm Cl2) and an irradiated standard rodent diet (Teklad 2919) consisting of 19% protein, 9% fat, and 4% fiber. Mice were injected subcutaneously into the right flank with 1x10^7 EOL-1 cells in 100 μl of a 1:1 HBSS:Matrigel solution. When tumors reached approximately 125–250 mm^3, animals were matched by tumor volume and then randomized into treatment and control groups before dosing was initiated. […] Cytarabine, also known as cytosine arabinoside (AraC), was administered by daily ip injection for 5 days only. Agent toxicity was assessed by effects on body weight and clinical signs. Animals were weighed twice weekly using a digital scale (Ohaus SP601). Beginning on Day 0, tumor dimensions were measured twice weekly by digital caliper (Fowler Ultra-Cal IV); tumor volume was calculated using the formula TV = width^2 x length x 0.52. […] Statistical differences in tumor volume were determined using a two-tailed One-Way Analysis of Variance (ANOVA) followed by the Dunnett’s multiple comparisons test comparing treated groups with control. For animal welfare the following methods were used: (a) methods of sacrifice: isoflurane anesthesia followed by cervical dislocation; (b) methods of anesthesia and/or analgesia: isoflurane anesthesia and (c) efforts to alleviate suffering: carprofen if animal veterinarian decides necessary or euthanasia.
(In xenograft studies the graft and the host belong to different species.)

The term IC50 denotes the point on the concentration scale where inhibition reaches its midpoint. For `CN(C)CC[C@H](CSc1ccccc1)Nc1ccc(S(=O)(=O)NC(=O)c2ccc(N3CCN(Cc4ccccc4-c4ccc(Cl)cc4)CC3)cc2)cc1[N+](=O)[O-]` [ABT-737, reference compound], in the data set on THP-1, the IC50 is 430 nM.

As to `CC1(C)CCC(c2ccc(Cl)cc2)=C(CN2CCN(c3ccc(C(=O)NS(=O)(=O)c4ccc(N[C@H](CCN5CCOCC5)CSc5ccccc5)c(S(=O)(=O)C(F)(F)F)c4)cc3)CC2)C1` [ABT-263, reference compound], the concentration for half-maximal inhibition (IC50) in the data set on THP-1 worked out at 270 nM.

Turning to `CC[C@H](Nc1nc(NCc2cccnc2)c2ncn(C(C)C)c2n1)[C@@H](C)O` [CCT068127], in the data set on Colo205 (Homo sapiens, COLO 205, 72 h), the IC50 is 820 nM.

As to `CC1(C)CCC(CN2CCN(c3ccc(C(=O)NS(=O)(=O)c4ccc(NCC5CCOCC5)c([N+](=O)[O-])c4)c(Oc4cnc5[nH]ccc5c4)c3)CC2)=C(c2ccc(Cl)cc2)C1` [ABT-199, reference compound], the IC50 with THP-1 came out at 60 nM.

Turning to `CN1CC[C@H](c2c(O)cc(O)c3c(=O)cc(-c4ccccc4Cl)oc23)[C@H](O)C1` [Alvocidib (flavopiridol), reference compound], the concentration for half-maximal inhibition (IC50) in the data set on Colo205 worked out at 130 ± 20 nM; in the data set on Colo205 (Homo sapiens, COLO 205, 72 h) it was 129 nM.

For the molecule `Nc1ccn([C@@H]2O[C@H](CO)[C@@H](O)[C@@H]2O)c(=O)n1` [cytarabine, cytosine arabinoside, reference compound], the “transient body weight loss” value in data set [1] (100 mg/kg i.p.) was determined as 3%. For the same molecule, the “tumor growth inhibition (TGI)” value in data set [1] (100 mg/kg i.p. days 1-5, Day 19) stood at 38%. Besides, the “median TGI” value in data set [1] (100 mg/kg i.p. days 1-5, day 9) came to 41%.
